Eight compounds from patent US7576105B2, “Benzyl substituted (piperidin-4-yl)aminobenzamido derivatives” (priority 2002, dated 2009) can be followed below.

As a reminder, the Ki is a dissociation constant, usually derived from enzyme kinetics or from competition with a known ligand. Low values mean a stronger hold on the target, high ones a looser hold on the target.

Test [1] deals with T1, δ-opioid receptor (Rattus norvegicus, UniProt P33533).
T1 construct: from tissue; host or cells: rat forebrain homogenate (Wistar rat)
T1 sequence (P33533 whole entry): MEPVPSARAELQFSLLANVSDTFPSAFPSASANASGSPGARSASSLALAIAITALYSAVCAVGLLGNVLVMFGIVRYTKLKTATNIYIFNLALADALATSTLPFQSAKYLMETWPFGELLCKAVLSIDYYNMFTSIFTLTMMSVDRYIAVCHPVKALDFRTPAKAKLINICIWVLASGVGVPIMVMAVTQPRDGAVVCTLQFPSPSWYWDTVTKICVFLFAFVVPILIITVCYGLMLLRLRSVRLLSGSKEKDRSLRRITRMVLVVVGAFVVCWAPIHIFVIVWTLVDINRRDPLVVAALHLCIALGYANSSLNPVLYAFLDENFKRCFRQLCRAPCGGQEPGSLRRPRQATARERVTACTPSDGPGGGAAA
The test is described as follows: Rat brain δ-opioid receptor binding assay. Particulars: rat forebrain particulate preparation, [3H]DPDPE, 25° C.

In test [2] the target is T2, μ-opioid receptor (Rattus norvegicus, UniProt P33535).
T2 construct: from tissue; host or cells: rat forebrain homogenate (Wistar rat)
T2 sequence (P33535 whole entry): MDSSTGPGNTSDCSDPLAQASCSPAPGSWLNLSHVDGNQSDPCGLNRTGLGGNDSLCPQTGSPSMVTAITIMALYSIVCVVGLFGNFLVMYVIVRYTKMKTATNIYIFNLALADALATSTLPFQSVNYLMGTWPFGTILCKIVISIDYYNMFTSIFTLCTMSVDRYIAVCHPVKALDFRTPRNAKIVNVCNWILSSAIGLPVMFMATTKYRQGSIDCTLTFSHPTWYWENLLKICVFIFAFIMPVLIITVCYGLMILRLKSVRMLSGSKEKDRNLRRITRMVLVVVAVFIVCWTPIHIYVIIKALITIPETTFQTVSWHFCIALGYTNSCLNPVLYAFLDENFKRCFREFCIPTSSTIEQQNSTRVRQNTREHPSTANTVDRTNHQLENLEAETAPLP
The test is described as follows: Rat brain μ-opioid receptor binding assay. Particulars: rat forebrain particulate preparation, [3H]DAMGO, 25° C.

The test system of test [3] is acetylcholine bromide-induced abdominal constriction. Conditions: mouse, in vivo.

Take `CCCN1CCC(N(Cc2cccc(OC)c2)c2ccc(C(=O)N(CC)CC)cc2)CC1` [Compound 1, N,N-diethyl-4-[3-methoxybenzyl(1-propylpiperidin-4-yl)amino]benzamide]: the Ki in test [1] turned out to be 0.24 µM; in test [2], 9.28 µM.

As to `CCCN1CCC(N(Cc2cccc(O)c2)c2ccc(C(=O)N(CC)CC)cc2)CC1` [Compound 2, N,N-Diethyl-4-[3-hydroxybenzyl(1-propylpiperidin-4-yl)amino]benzamide], in test [3], the “MAIT % Inhibition @150 μmol/kg” value amounted to 13.3%.

In the case of `CCCN1CCC(N(Cc2ccccc2O)c2ccc(C(=O)N(CC)CC)cc2)CC1` [Compound 5, N,N-Diethyl-4-[2-hydroxybenzyl(1-propylpiperidin-4-yl)amino]benzamide], the Ki is 3.47 µM in test [1] and at least 10 µM in test [2].

In the case of `CCCN1CCC(N(Cc2ccccc2)c2ccc(C(=O)N(CC)CC)cc2)CC1` [Compound 7, N,N-Diethyl-4-[benzyl(1-propylpiperidin-4-yl)amino]benzamide], in test [3], the “MAIT % Inhibition @150 μmol/kg” value was 100%.

For the compound `CCN(CC)C(=O)c1ccc(N(Cc2ccccc2)C2CCNCC2)cc1` [Compound 8, N,N-Diethyl-4-[benzyl(piperidin-4-yl)amino]benzamide], the “MAIT % Inhibition @150 μmol/kg” value in test [3] stood at 33.3%.

Turning to `C=CCN1CCC(N(Cc2ccccc2)c2ccc(C(=O)N(CC)CC)cc2)CC1` [Compound 9, N,N-Diethyl-4-[benzyl(1-allylpiperidin-4-yl)amino]benzamide], in test [3], the “MAIT % Inhibition @150 μmol/kg” value was 84.6%.

As for `CCN(CC)C(=O)c1ccc(N(Cc2ccccc2)C2CCN(C(C)C)CC2)cc1` [Compound 10, N,N-Diethyl-4-[benzyl(1-isopropylpiperidin-4-yl)amino]benzamide], the Ki in test [1] amounted to 0.585 µM; in test [2], 3.79 µM.

For the compound `CCN(CC)C(=O)c1ccc(N(Cc2ccccc2)C2CCN(CCCN(C)C)CC2)cc1` [Compound 11, N,N-Diethyl-4-[benzyl(1-[3-dimethylaminopropyl]piperidin-4-yl)amino]benzamide], the figures for the Ki in test [1] and in test [2] were 1.77 µM and at least 10 µM, respectively.
